Measurements from patent publication US8293769B2, “CSF-1R inhibitors, compositions, and methods of use” (Novartis AG, priority 2008, dated 2012).

Assays:
[1] = molecular target: T1, PDGFRb (Homo sapiens, UniProt P09619); experiment: PDGFRb kinase in vitro biochemical assay (alphascreen); conditions: tested at about 1 μM; read-out: PDGF RK BETA percent inhibition
T1 construct: The kinase domain of PDGFRβ was assayed in 50 mM Hepes; purchased Invitrogen P3082

[2] = test system: MNFS60 (murine AML cells); experiment: Cell viability assay in MCSF dependent MNFS60 cells (Cell Titer Glo); assay type: cell-based; conditions: Mus musculus; tested at about 1 μM; MCSF 10 ng/mL, 72 hrs; read-out: CPEC50 MNFS60MCSF percent inhibition
Method in brief: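 MNFS60 cells, 5,000 per well in RPMI-1640/10% FBS, grown with 10 ng/mL MCSF and 3-fold compound dilutions for 72 h at 37 °C. Viable cells measured by CellTiter-Glo luminescence, triplicates; EC50 fitted, with MCSF-free wells as 100% inhibition.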

[3] = molecular target: T2, cKIT (Homo sapiens, UniProt P10721); experiment: cKIT kinase in vitro biochemical assay (alphascreen); conditions: tested at about 1 μM; read-out: CKIT percent inhibition
T2 construct: The kinase domain of cKIT was assayed in 50 mM Hepes; purchased Upstate 14-559

[4] = molecular target: T3, full-length human CSF-1R receptor (Homo sapiens, UniProt P07333); experiment: In vitro inhibition of CSF-1R receptor tyrosine phosphorylation in transfected HEK293H cells; assay type: cell-based; conditions: HEK293-H, tested at about 1 μM, 50 ng/mL MCSF, read-out: PCSF1R percent inhibition
T3 construct: transfected with the full-length human CSF-1R receptor cloned in house; expressed in transfected cells; host or cells: HEK293H (Invitrogen Cat. #11631017)
Method: To test the inhibition of CSF-1R receptor tyrosine phosphorylation, HEK293H purchased from Invitrogen Cat. #11631017 cells transfected with the full-length human CSF-1R receptor cloned in house into mammalian episomal transfection vector were incubated for 1 h with serial dilutions of compounds starting at 10 μM with 3 fold dilutions and then stimulated for 8 min with 50 ng/mL MCSF. After the supernatant was removed, the cells were lysed on ice with lysis buffer (150 mM NaCl, 20 mM Tris, pH 7.5, 1 mM EDTA, 1 mM EGTA, 1% Triton X-100 and NaF, protease and phosphatase inhibitors) and then shaken for 15-20 min at 4° C. The lysate was then transferred to total CSF-1R antibody coated 96-well plates that had already been blocked with 3% Blocker A from Mesoscale discovery (MSD) for 2 hours and washed afterwards. Lysates were incubated overnight at 4° C. and the plates were then washed 4× with MSD Tris Wash Buffer. The SULFO-TAG anti-pTyr antibody from MSD was diluted to 20 nM final in 1% Blocker A (MSD) solution and added to the washed plates and incubated for 1.5-2 h before addition of read buffer (MSD). The plates were read on the Sector 6000 instrument (MSD). Raw data was imported in Abase and EC50s calculated with XL-fit data analysis software.

[5] = molecular target: T4, cytoplasmic domain of the human CSF-1R (Homo sapiens, UniProt P07333); experiment: In vitro kinase assay for CSF-1R (AlphaScreen); assay type: biochemical; conditions: tested at about 1 μM; read-out: CSF1RK 1 percent inhibition
T4 construct: Recombinant protein corresponding to the cytoplasmic domain of the human CSF-1R; purchased Invitrogen Corporation, Carlsbad, Calif; PV3249
T4 sequence (P07333 539-972 limits assumed): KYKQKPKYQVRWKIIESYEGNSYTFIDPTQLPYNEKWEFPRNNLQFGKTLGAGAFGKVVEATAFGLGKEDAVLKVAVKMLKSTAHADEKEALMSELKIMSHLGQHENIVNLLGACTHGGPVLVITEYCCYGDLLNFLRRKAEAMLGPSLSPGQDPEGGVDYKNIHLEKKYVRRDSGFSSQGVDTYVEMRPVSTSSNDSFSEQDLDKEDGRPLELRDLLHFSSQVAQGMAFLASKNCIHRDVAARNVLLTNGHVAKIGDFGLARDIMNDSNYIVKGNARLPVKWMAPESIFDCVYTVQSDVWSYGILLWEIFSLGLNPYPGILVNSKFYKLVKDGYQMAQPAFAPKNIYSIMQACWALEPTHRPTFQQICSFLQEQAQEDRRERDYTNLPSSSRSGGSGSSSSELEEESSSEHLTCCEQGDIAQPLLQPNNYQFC
Method in brief: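 Recombinant CSF-1R cytoplasmic domain (4 nM) phosphorylated biotinylated peptide (0.05 μM) at 1.0 μM ATP in HEPES with Mg2+/Mn2+, 2 h at room temperature, compounds from 25 μM in 3-fold steps. AlphaScreen anti-phosphotyrosine PT66 detection; IC50 by non-linear regression.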

T3 sequence (P07333 20-972): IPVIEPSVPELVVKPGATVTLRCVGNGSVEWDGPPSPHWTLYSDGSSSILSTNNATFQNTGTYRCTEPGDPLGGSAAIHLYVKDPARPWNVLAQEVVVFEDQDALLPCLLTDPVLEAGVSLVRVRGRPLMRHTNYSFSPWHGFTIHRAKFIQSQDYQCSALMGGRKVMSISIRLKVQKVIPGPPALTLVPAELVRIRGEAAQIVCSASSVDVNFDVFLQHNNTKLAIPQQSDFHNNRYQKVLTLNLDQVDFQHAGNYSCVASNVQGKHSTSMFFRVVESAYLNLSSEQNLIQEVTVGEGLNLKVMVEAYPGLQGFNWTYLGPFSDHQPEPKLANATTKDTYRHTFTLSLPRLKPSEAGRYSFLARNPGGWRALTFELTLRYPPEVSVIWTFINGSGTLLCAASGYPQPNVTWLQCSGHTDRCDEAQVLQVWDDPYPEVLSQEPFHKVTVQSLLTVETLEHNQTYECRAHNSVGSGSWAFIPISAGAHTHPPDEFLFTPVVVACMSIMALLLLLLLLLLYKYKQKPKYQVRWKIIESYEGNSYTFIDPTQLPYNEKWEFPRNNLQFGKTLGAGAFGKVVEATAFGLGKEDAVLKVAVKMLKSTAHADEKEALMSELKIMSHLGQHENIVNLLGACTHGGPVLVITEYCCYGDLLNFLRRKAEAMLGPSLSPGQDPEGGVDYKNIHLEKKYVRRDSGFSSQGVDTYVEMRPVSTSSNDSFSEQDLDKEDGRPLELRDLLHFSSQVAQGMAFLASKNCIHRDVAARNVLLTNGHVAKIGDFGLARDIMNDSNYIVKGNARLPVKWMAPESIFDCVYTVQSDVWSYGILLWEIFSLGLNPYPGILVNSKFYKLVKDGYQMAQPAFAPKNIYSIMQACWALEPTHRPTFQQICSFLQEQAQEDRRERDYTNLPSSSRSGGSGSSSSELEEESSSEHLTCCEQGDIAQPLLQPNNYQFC
T2 sequence (P10721 589-937 limits assumed): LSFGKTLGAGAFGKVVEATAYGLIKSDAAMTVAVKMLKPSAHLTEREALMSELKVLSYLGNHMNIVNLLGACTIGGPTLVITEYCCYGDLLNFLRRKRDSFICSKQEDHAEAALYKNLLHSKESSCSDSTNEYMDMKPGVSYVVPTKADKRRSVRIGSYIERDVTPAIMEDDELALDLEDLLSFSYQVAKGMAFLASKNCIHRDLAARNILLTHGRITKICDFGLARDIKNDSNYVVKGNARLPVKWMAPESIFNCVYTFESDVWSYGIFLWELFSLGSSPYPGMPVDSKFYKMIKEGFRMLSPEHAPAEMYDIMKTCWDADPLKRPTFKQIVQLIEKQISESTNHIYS
T1 sequence (P09619 600-962 limits assumed): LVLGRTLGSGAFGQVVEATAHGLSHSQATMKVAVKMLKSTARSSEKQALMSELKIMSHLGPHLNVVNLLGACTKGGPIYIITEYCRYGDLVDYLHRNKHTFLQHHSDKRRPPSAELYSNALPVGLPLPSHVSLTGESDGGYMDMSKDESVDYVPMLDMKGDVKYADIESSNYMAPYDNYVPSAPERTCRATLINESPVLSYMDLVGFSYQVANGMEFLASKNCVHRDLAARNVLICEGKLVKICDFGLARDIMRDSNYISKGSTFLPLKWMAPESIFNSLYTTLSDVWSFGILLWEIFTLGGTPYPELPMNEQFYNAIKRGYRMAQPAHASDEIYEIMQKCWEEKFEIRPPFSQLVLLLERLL

**Q.** `Cn1cncc1-c1cncc(Oc2ccc3nc(N[C@@H]4CCCC[C@H]4O)sc3c2)c1` [Compound 68, (1R,2R)-2-(6-(5-(1-methyl-1H-imidazol-5-yl)pyridin-3-yloxy)benzo[d]thiazol-2-ylamino) cyclohexanol] was tested. Which inhibition at 1 µM [1] did it give?
**A.** 21%

**Q.** What about the inhibition at 1 µM [2] of the same molecule?
**A.** 85%

**Q.** What about the inhibition at 1 µM [3] of the same molecule?
**A.** 33%

**Q.** What about the inhibition at 1 µM [4] of the same molecule?
**A.** 93%

**Q.** What about the inhibition at 1 µM [5] of the same molecule?
**A.** 100%

**Q.** `CC(C)(C)OC(=O)N1CC=C(c2cncc(Oc3ccc4nc(N[C@@H]5CCCC[C@H]5O)sc4c3)c2)CC1` [Compound 79] was tested. Which inhibition at 1 µM [1] did it give?
**A.** 9%

**Q.** What about the inhibition at 1 µM [2] of the same molecule?
**A.** 93%

**Q.** And the inhibition at 1 µM [3]?
**A.** 48%

**Q.** And the inhibition at 1 µM [4]?
**A.** 93%

**Q.** And the inhibition at 1 µM [5]?
**A.** 100%

**Q.** `O[C@@H]1CCCC[C@H]1Nc1nc2ccc(Oc3cncc(-c4cn[nH]c4)n3)cc2s1` [Compound 92, (1R,2R)-2-(6-(6-(1H-pyrazol-4-yl)pyrazin-2-yloxy)benzo [d]thiazol-2-ylamino) cyclohexanol] was tested. Which inhibition at 1 µM [1] did it give?
**A.** 23%

**Q.** And the inhibition at 1 µM [2]?
**A.** 70%

**Q.** What about the inhibition at 1 µM [3] of the same molecule?
**A.** 27%

**Q.** And the inhibition at 1 µM [4]?
**A.** 93%

**Q.** And the inhibition at 1 µM [5]?
**A.** 100%

**Q.** Which inhibition at 1 µM [1] does the source give for `Cn1cc(-c2cncc(Oc3ccc4nc(N[C@@H]5CCCC[C@H]5O)sc4c3)n2)cn1` [Compound 93, (1R,2R)-2-(6-(6-(1-methyl-1H-pyrazol-4-yl)pyrazin-2-yloxy)benzo[d]thiazol-2-ylamino)cyclohexanol] here?
**A.** 22%

**Q.** What about the inhibition at 1 µM [2] of the same molecule?
**A.** 82%

**Q.** And the inhibition at 1 µM [3]?
**A.** 18%

**Q.** And the inhibition at 1 µM [4]?
**A.** 95%

**Q.** And the inhibition at 1 µM [5]?
**A.** 100%

**Q.** For `CCCn1cc(-c2cncc(Oc3ccc4nc(N[C@@H]5CCCC[C@H]5O)sc4c3)n2)cn1` [Compound 94, (1R,2R)-2-(6-(6-(1-propyl-1H-pyrazol-4-yl)pyrazin-2-yloxy)benzo[d]thiazol-2-ylamino)cyclohexanol], which inhibition at 1 µM [1] is on record?
**A.** 9%

**Q.** And the inhibition at 1 µM [2]?
**A.** 80%

**Q.** And the inhibition at 1 µM [3]?
**A.** 13%

**Q.** And the inhibition at 1 µM [4]?
**A.** 95%

**Q.** What about the inhibition at 1 µM [5] of the same molecule?
**A.** 100%

**Q.** Which inhibition at 1 µM [1] does the source give for `Nc1ccc(-c2cncc(Oc3ccc4nc(N[C@@H]5CCCC[C@H]5O)sc4c3)n2)cn1` [Compound 97, (1R,2R)-2-(6-(6-(6-aminopyridin-3-yl)pyrazin-2-yloxy)benzo[d]thiazol-2-ylamino)cyclohexanol] here?
**A.** 19%

**Q.** What about the inhibition at 1 µM [2] of the same molecule?
**A.** 62%

**Q.** What about the inhibition at 1 µM [3] of the same molecule?
**A.** 24%

**Q.** And the inhibition at 1 µM [4]?
**A.** 91%

**Q.** What about the inhibition at 1 µM [5] of the same molecule?
**A.** 100%

**Q.** `CN1CCN(c2ccc(-c3cncc(Oc4ccc5nc(N[C@@H]6CCCC[C@H]6O)sc5c4)n3)cn2)CC1` [Compound 98, (1R,2R)-2-(6-(6-(6-(4-methylpiperazin-1-yl)pyridin-3-yl)pyrazin-2-yloxy)benzo[d]thiazol-2-ylamino)cyclohexanol] was tested. Which inhibition at 1 µM [1] did it give?
**A.** 12%

**Q.** What about the inhibition at 1 µM [2] of the same molecule?
**A.** 100%

**Q.** What about the inhibition at 1 µM [3] of the same molecule?
**A.** 15%

**Q.** And the inhibition at 1 µM [4]?
**A.** 98%

**Q.** What about the inhibition at 1 µM [5] of the same molecule?
**A.** 100%

**Q.** What does the source list for `CN1CCN(c2ccc(-c3cc(Oc4ccc5nc(N[C@@H]6CCCC[C@H]6O)sc5c4)cnc3-c3ccc(N4CCN(C)CC4)nc3)cn2)CC1` [Compound 107, (1R,2R)-2-(6-(5,6-bis(6-(4-methylpiperazin-1-yl)-pyridin-3-yl)pyridin-3-yloxy)benzo[d]thiazol-2-ylamino)cyclohexanol]?
**A.** inhibition at 1 µM [1]: 26%; inhibition at 1 µM [2]: 100%; inhibition at 1 µM [3]: 16%; inhibition at 1 µM [4]: 86%; inhibition at 1 µM [5]: 100%
